Paper PMC6089342 (ACS chemical biology, 2017)

Legend:
YFP-PARP14 MD2 = molecular target: T1, YFP-PARP14 MD2 (Homo sapiens, UniProt Q460N5); test: Laser micro-irradiation assay, recruitment of YFP-PARP14 MD2 to DNA damage sites; format: cell-based; conditions: U-2 OS cells
T1 sequence (Q460N5 1003-1190 limits assumed): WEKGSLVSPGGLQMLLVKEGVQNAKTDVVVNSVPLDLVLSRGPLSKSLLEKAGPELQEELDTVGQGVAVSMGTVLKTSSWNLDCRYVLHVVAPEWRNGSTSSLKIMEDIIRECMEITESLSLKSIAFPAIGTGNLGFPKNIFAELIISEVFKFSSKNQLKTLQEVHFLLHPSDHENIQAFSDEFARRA

PARP14 MD2 = molecular target: T2, PARP14 MD2 (Homo sapiens, UniProt Q460N5); test: Isothermal titration calorimetry; format: binding; conditions: negative control, Figure 1D
T2 sequence (Q460N5 994-1191): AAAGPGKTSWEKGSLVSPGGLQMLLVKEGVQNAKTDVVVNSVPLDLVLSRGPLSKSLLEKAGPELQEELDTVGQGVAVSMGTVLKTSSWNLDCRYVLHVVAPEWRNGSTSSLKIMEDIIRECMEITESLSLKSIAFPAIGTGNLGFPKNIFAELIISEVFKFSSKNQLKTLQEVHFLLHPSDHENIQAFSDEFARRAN

O=C(c1cc(Cc2n[nH]c(=O)c3ccccc23)ccc1F)N1CCN(C(=O)C2CC2)CC1 [Olaparib, reference compound]
PARP14 MD2 recruitment to laser-induced DNA damage sites (YFP-PARP14 MD2; 10 µM, pre-treated 1 hour): recruitment of the macrodomain could not be detected

CC(=O)Nc1ccncc1-c1cccc2c1[nH]c1ccccc12 [MnK2-68]
PARP14 MD2 recruitment to laser-induced DNA damage sites (YFP-PARP14 MD2; negative control, concentration not given): did not interfere with PARP14 MD2 recruitment
binding to PARP14 MD2 (PARP14 MD2): did not bind
